From US20260374739A1, “SMALL MOLECULAR WEIGHT CHEMICAL COMPOUND TO ANTAGONIZE EPH-EPHRIN TETRAMERIZATION AND INHIBIT BIDIRECTIONAL SIGNALING” (THE BOARD OF REGENTS OF THE UNIVERSITY OF TEXAS SYSTEM, priority 2022, published 2026)
“And” between values parts separate entries of the source, which are not always exact repeats. Equal entries are not always repeated. Where two headings read alike, the source gives them in different places.

How the values were obtained:
EphB2-EphrinB2 = target: T1, EphB2-EphrinB2 (Mus musculus, UniProt P54763); experiment: EphrinB2 co-immunoprecipitation with EphB2 in mouse brain after dosing; assay type: in vivo; conditions: IP 10 mg/kg every 12 hr, 4 days
T1 construct: Whole brain protein lysates were then prepared in a Dounce homogenizer; from tissue; host or cells: brain of wild-type mice
T1 sequence (P54763 19-986): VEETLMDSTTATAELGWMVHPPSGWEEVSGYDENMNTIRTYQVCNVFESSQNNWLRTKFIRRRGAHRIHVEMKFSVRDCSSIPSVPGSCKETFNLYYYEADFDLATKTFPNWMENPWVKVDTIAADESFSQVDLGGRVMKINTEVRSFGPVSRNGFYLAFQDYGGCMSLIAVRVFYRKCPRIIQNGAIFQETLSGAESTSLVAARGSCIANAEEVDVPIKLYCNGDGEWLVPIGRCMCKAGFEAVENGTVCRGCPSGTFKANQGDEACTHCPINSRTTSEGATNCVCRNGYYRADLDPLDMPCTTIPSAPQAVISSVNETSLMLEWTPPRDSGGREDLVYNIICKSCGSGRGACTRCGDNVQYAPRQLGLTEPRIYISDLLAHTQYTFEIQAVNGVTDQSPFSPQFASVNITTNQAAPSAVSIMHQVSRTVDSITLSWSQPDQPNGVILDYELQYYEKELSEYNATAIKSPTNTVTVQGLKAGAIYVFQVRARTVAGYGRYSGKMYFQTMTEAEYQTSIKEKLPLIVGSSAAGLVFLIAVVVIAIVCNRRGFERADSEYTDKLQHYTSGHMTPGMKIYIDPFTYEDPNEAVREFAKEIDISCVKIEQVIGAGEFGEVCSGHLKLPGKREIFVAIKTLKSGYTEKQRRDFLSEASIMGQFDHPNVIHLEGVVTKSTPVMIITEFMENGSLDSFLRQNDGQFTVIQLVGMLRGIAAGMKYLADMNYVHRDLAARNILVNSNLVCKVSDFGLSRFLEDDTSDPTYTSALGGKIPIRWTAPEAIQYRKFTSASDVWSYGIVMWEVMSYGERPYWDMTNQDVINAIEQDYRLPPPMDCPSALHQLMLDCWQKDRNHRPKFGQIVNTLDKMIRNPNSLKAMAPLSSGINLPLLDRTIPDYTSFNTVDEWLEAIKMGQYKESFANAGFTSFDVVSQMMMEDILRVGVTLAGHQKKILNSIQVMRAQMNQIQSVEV
Protocol: Wild-type mice aged 10-12 weeks were IP injected every 12 hr for four days with vehicle (PBS) or 10 mg/kg of 2×·HCl salt forms of A20 (in PBS), A20-I (in PBS), or 3511-I, in 94% PBS/6% DMSO) for a total of 8 injections. Exactly 2 hr after final injection of A20 chemical, brains were dissected and frozen at −80 °C. Whole brain protein lysates were then prepared in a Dounce homogenizer using 5 ml PLC lysis buffer, and 1 ml of lysate was used for immunoprecipitation (IP) with 1 μg goat anti-EphB2 antibody, followed by immunoblot (IB) analysis with goat anti-EphB2, rabbit anti-phosphoEphB1/B2 (pEphB1/B2), and mouse anti-EphrinB2 antibodies using appropriate HRP conjugated secondary antibodies and chemiluminescent detection methods.
FIG. 79A depicts an illustrative immunoblot showing expression of EphB2, phospho-EphB1/B2, and EphrinB2 (co-IP) in the mouse brains. […] The level of co-immunoprecipitated EphrinB2 from the brains of A20 chemical injected animals was generally lower as indicated by fainter bands. FIGS. 79B and 79C show quantification of band intensities (number of photons detected) to obtain ratios of pEphB/EphB2 as a measure of EphB2 receptor activation levels (FIG. 79B) and ratios of EphrinB2/EphB2 as a measure of how much EphrinB2 is co-immunoprecipitated with the EphB2 receptor (FIG. 79C).

aqueous solubility = assay type: physicochemical; conditions: for solubility in water: salt forms
Protocol: FIG. 45 depicts tests of salt forms of A20 and A20-1 for aqueous solubility. Compounds were provided to the UT Southwestern PK Core facility and tested for soluble in water. While both are quite soluble, A20 salt was especially so and can be made into a […] solution, whereas A20-I salt can be dissolved into >15% solution.
(§1) A study was conducted with A20 salt dissolved solely in PBS and injected at 20 mg/kg to match the previously described study of the free-base. […] The results from the brain, spinal cord, and liver tissues are particularly outstanding and indicate that significant levels of A20 salt remain even after the final collection at 24 hr time point.
To examine the drug-like nature of the disclosed compounds, tests for solubility was conducted.

[1] = pharmacokinetics, single IP injection; assay type: in vivo, mouse; design: spinal cord AUC0-t / plasma AUC0-t / brain AUC0-t / liver AUC0-t: unit not given here; conditions: for biodistribution: IP, mice; for Cmax / Tmax: mouse; for Cmax: ip, 20 mg/kg; for plasma AUC0-t: 24 hr
Protocol: Further studies were conducted as in vivo experiments to evaluate the effect of A20 when injected into the mouse. To formulate the compound for intraperitoneal (IP) injection, A20 was tested for solubility in various buffers, pH conditions, and with cyclodextrins (e.g. Captisol). The formulation was prepared by first dissolving A20 powder in DMSO and followed by mixing with sunflower seed oil (SSO) prior to administration (in 6% DMSO/94% SSO). […] PK profiling experiments were then conducted with A20 to determine its absorption, distribution, metabolism, and excretion (ADME) properties. Mice were given a single IP injection of 20 mg/kg A20 and after 10, 30, 90, 180, 360, 960, 1440 min, three animals per time point were sacrificed and tissue was collected and subjected to mass spectrometry.
as §1

[2] = water, read-out: aqueous solubility

Q: What does the source list for `Oc1c(I)cc(CN2CCOCC2)c2cccnc12` [Compound 7, 7-iodo-5-(morpholinomethyl)quinolin-8-ol]?
A: association of EphrinB2 with EphB2 in brain (EphB2-EphrinB2): reduced level of association with EphrinB2; solubility in water (aqueous solubility): extremely soluble in water

Q: For `Oc1ccc(CN2CCN(Cc3ccc(Br)cc3)CC2)c2cccnc12` [Compound 42, 5-((4-(4-bromobenzyl)piperazin-1-yl)methyl)quinolin-8-ol], which “biodistribution” value ([1]; listed as QPB4-Bn) is on record?
A: significantly high levels of compound reach intended tissues (i.e., brain, spinal cord, liver, skin) and persist at high concentrations during the 24 hr period

Q: With `Oc1c(Br)cc(CN2CCOCC2)c2cccnc12` [Compound 6, 4-((7-bromo-8-hydroxyquinolin-1-ium-5-yl)methyl)morpholin-4-ium chloride] as the molecule, how does the Cmax ([1]; brain, salt in PBS, IP 20 mg/kg, read-out: brain Cmax) read?
A: 7.03 µM and 2790 ng/mL

Q: What about the Cmax ([1]; liver, salt in PBS, IP 20 mg/kg, read-out: liver Cmax) of the same molecule?
A: 22600 ng/mL and 57 µM

Q: And the Cmax ([1]; plasma, salt in PBS, IP 20 mg/kg, read-out: plasma Cmax)?
A: 2880 ng/mL and 7.27 µM

Q: What about the Cmax ([1]; spinal cord, salt in PBS, IP 20 mg/kg, read-out: spinal cord Cmax) of the same molecule?
A: 3310 ng/mL and 8.35 µM

Q: What about the “brain AUC0-t” value ([1]; salt in PBS, IP 20 mg/kg) of the same molecule?
A: 136,933

Q: And the “brain time of Cmax” value ([1]; salt in PBS, IP 20 mg/kg)?
A: 10 min

Q: And the “liver AUC0-t” value ([1]; salt in PBS, IP 20 mg/kg)?
A: 1,363,490

Q: And the “plasma time of Cmax” value ([1]; salt in PBS, IP 20 mg/kg)?
A: 10 min

Q: And the “spinal cord AUC0-t” value ([1]; salt in PBS, IP 20 mg/kg)?
A: 86,044

Q: And the “plasma AUC0-t” value ([1]; salt in PBS, IP 20 mg/kg)?
A: 81,039

Q: What about the “brain AUC0-t increase over the free-base” value ([1]; salt vs free-base) of the same molecule?
A: > 20 fold

Q: And the “brain Cmax increase over the free-base” value ([1]; salt vs free-base)?
A: > 26 fold

Q: What about the “plasma AUC0-t increase over the free-base” value ([1]; salt vs free-base) of the same molecule?
A: > 5.5 fold

Q: What about the “plasma Cmax increase over the free-base” value ([1]; salt vs free-base) of the same molecule?
A: > 13 fold

Q: What about the “spinal cord AUC0-t increase over the free-base” value ([1]; salt vs free-base) of the same molecule?
A: > 17 fold

Q: What about the “spinal cord Cmax increase over the free-base” value ([1]; salt vs free-base) of the same molecule?
A: > 37 fold

Q: And the solubility (aqueous solubility; water or pbs, aqueous buffer, read-out: solubility in water or PBS)?
A: > 50 mg/mL

Q: And the solubility (aqueous solubility; [2])?
A: > 1000 mg/mL

Q: For `Oc1c(I)cc(CN2CCOCC2)c2cccnc12` [Compound 8, 4-((8-hydroxy-7-iodoquinolin-1-ium-5-yl)methyl)morpholin-4-ium chloride], which solubility (aqueous solubility; [2]) is on record?
A: > 150 mg/mL

Q: With `Oc1c(Br)cc(CN2CCOCC2)c2cccnc12` [Compound 5, 7-bromo-5-(morpholinomethyl)quinolin-8-ol] as the molecule, how does the “biodistribution” value [1] read?
A: distributes to plasma, brain, and spinal cord

Q: What about the “brain AUC0-t” value ([1]; free base, IP 20 mg/kg) of the same molecule?
A: 6,684

Q: What about the “spinal cord AUC0-t” value ([1]; free base, IP 20 mg/kg) of the same molecule?
A: 4,928

Q: What about the “plasma AUC0-t” value ([1]; free base, IP 20 mg/kg) of the same molecule?
A: 14,636

Q: What about the Cmax ([1]; brain, free base, IP 20 mg/kg, read-out: brain Cmax) of the same molecule?
A: 104 ng/mL and 323 nM

Q: And the Tmax ([1]; brain, free base, IP 20 mg/kg, read-out: brain time of Cmax (converted))?
A: 10 min

Q: And the Cmax ([1]; plasma, free base, IP 20 mg/kg, DMSO/SSO, read-out: plasma Cmax)?
A: 214 ng/mL

Q: What about the Cmax ([1]; plasma, free base, IP 20 mg/kg, read-out: plasma Cmax) of the same molecule?
A: 665 nM

Q: What about the Tmax ([1]; plasma, free base, IP 20 mg/kg, read-out: plasma time of Cmax (converted)) of the same molecule?
A: 10 min

Q: What about the Cmax ([1]; spinal cord, free base, IP 20 mg/kg, read-out: spinal cord Cmax) of the same molecule?
A: 88 ng/mL and 273 nM

Q: And the “association of EphrinB2 with EphB2 in brain” value (EphB2-EphrinB2)?
A: reduced level of association with EphrinB2

Q: What about the “solubility in water” value (aqueous solubility) of the same molecule?
A: extremely soluble in water

Q: With `COc1ccccc1N1CCN(Cc2cc(I)c(O)c3ncccc23)CC1` [Compound 71, 7-iodo-5-((4-(2-methoxyphenyl)piperazin-1-yl)methyl)quinolin-8-ol] as the molecule, how does the “association of EphrinB2 with EphB2 in brain” value (EphB2-EphrinB2) read?
A: reduced level of association with EphrinB2
